Measurements published in patent US11505531B2 (SOUTHERN RESEARCH INSTITUTE, priority 2018, dated 2022).

How the values were obtained:
TGF-β mediated by TSP-1 = test: Cell-based assay of inhibition of TGF-β mediated by TSP-1; design: species or system human; settings: for inhibition at 0.01 µM / inhibition at 0.1 µM / inhibition at 1 µM / IC50: Homo sapiens; for inhibition at 0.01 µM: At 10 nM; for inhibition at 0.01 µM / inhibition at 0.1 µM / inhibition at 1 µM: read-out: Inhibition of TGF-β mediated by TSP-1 cell-based assay at [Inhibitor]; for inhibition at 0.1 µM: At 100 nM; for IC50: assay not stated, given only for compounds tested in the cell-based assay
Method: To specifically assess activity of compounds in liver cell specific assays, two different assays were used. In the first, human hepatic stellate cells were incubated overnight in low serum media to condition the media with secreted latent […]. Purified TSP1 either preincubated with compounds or not will be added to cultures and then conditioned media harvested to assess TGF-β biological activity using the R&D Systems ELISA as above. Hepatic stellate cells will be purchased from commercial sources. Although hepatic stellate cells are the primary drivers of liver fibrosis, conditions which drive liver fibrosis can induce hepatocyte TSP-1 expression which can then have paracrine effects on controlling TGF-β activation in hepatic stellate cells. Furthermore, TGF-β can negatively impact hepatocyte regeneration following injury. Therefore, the ability of compounds to block TSP-1 activation of latent TGF-β will also be assessed in cultured primary human hepatocytes following the protocol described for the hepatic stellate cells. Similar approaches have successfully been used to screen compounds which inhibit human myeloma cell derived latent TGF-β activation by TSP-1 (Lu et al. (2016) Am J Pathol 186:678-690).

CAG-heparanase MM cells = test: PAI-1 promoter luciferase reporter assay of conditioned media of TSP1-treated CAG-heparanase MM cells; assay type: cell-based, human; settings: cells treated with 67 nM TSP1
Method: Referring to FIG. 4B, CAG-heparanase MM cells were treated with 67 nM TSP1 and conditioned media were assessed for TGF-β activity using PAI-1 promoter luciferase reporter assay. There is ˜[…] TGF-β in the added TSP1 and LSKL blocks 80% of the CAG-heparanase MM cell generated TGF-β activity.

CAG human myeloma cells = test: SCID-tibia MM model, tumor burden (bioluminescence, serum Ig kappa); assay type: in vivo, SCID mice; settings: LSKL 30 mg/kg/day by subcutaneous osmotic pump, 2 and 4 weeks
Method: Referring to FIG. 2A and FIG. 2B, CAG human myeloma cells were injected into the intratibial marrow space of SCID mice. After 2 weeks, tumors were imaged by bioluminescence and serum 1 g kappa levels measured. Mice were randomized to equalize 1 g kappa levels. Osmotic pumps were implanted subcutaneously to deliver saline or LSKL peptide (30 mg/kg/day) (n=10/group). Tumors were imaged and serum 1 g kappa levels measured at 2 and 4 weeks of treatment. Data are means±SEM. Bioluminescence; *p=0.019 ANOVA, serum kappa; p=0.037, t-test.

phospho-Smad 2 = test: Phospho-Smad 2 staining of tibiae from mice injected with CAG MM cells; assay type: in vivo; settings: 4 weeks of treatment
Method: Referring to FIG. 3A-C, at 4 weeks of treatment, tibiae from mice injected with CAG MM cells were fixed and stained with antibody to phosphor-Smad 2. Left panels are from 2 different saline treated mice and the right panels are from LSKL-treated mice. Pixels of brown staining were quantified in 4 fields per animal. 5-6 animals per group were analyzed. Data are the percent area exceeding the threshold for positive staining (FIG. 3A). […] P=0.004.

MSCs = test: Osteoblast differentiation by MSCs under osteogenic conditions (alkaline phosphatase staining, Runx2 RT-PCR); assay type: cell-based; settings: osteogenic media, TSP1 10 nM + LSKL 25 μM, 20 days
Method: Referring to FIG. 1A, MSCs were grown to confluence in basal (control) media. Cells were treated with control growth media, osteogenic media, or osteogenic media with TGF-β (5 ng/mL) or stripped TSP1 (10 nM), TSP1+LSKL (25 μM), TSP1+SLLK (25 μM control peptide), or TSP1+anti-TGF-β (5 μg/mL). Cultures were fed daily for 20 days. Alkaline phosphatase staining is representative of triplicate wells.
Referring to FIG. 1B, cells were treated every 2 days for 20 days with MSC growth media (control) or osteogenic media with TGF-β (5 ng/mL) or TSP1 (10 nM)±daily treatment with 25 μM LSKL or SLLK peptides. RNA isolated from cells was used for RT-PCR analysis of Runx2 expression. Samples were run in duplicate and each experimental treatment in triplicate.

CAG MM cells = test: Phospho-Smad 2 immunoblot in TSP1-treated CAG MM cells; assay type: cell-based, human; settings: 30 nM TSP1 for 6 hrs ± LSKL
Method: Referring to FIG. 4A, CAG MM cells were incubated with 30 nM TSP1 for 6 hrs±LSKL or SLLK. Cell lysates were immunoblotted for phosphor-Smad 2. Blots were stripped and reprobed for total Smad 2/3 and GAPDH. Results are normalized to GAPDH (untreated controls=1). LSKL reduces TSP1 induced treatment or luciferase activity in cells treated with active TGF-β (not shown).

[1] = cited from earlier work
[2] = 30 mg/kg i.p., 3 times weekly, 15 weeks; cited from earlier work
[3] = target: T1, TGF-β mediated by TSP-1 (purified human platelet TSP-1 + recombinant latent TGF-β1) (Homo sapiens, UniProt P07996); test: In vitro ELISA assay: TSP-1 incubated with compound, then with recombinant latent TGF-β1; active TGF-β detected; assay type: biochemical; settings: read-out: Inhibition of TGF-β mediated by TSP-1 in vitro Elisa assay at [Inhibitor]; for inhibition at 0.0001 µM: At 100 pM
T1 construct: purified human platelet TSP-1 was incubated with compounds; tissue R&D Systems (latent TGF-β1 only); host or cells: human platelets (TSP-1)
Method: For initial screening, an ELISA-based screening assay was used in which purified human platelet TSP-1 was incubated with compounds and then incubated with recombinant latent TGF-β1 (purchased from R&D Systems). Activity is measured in a commercially available ELISA which detects only active TGF-β (R &D Systems). Activity in the presence of compounds is compared to activity in TSP-1+latent TGF-β samples without inhibitory compounds (Lu et al. (2016) Am J Pathol 186:678-690).

T1 sequence (P07996 19-1170): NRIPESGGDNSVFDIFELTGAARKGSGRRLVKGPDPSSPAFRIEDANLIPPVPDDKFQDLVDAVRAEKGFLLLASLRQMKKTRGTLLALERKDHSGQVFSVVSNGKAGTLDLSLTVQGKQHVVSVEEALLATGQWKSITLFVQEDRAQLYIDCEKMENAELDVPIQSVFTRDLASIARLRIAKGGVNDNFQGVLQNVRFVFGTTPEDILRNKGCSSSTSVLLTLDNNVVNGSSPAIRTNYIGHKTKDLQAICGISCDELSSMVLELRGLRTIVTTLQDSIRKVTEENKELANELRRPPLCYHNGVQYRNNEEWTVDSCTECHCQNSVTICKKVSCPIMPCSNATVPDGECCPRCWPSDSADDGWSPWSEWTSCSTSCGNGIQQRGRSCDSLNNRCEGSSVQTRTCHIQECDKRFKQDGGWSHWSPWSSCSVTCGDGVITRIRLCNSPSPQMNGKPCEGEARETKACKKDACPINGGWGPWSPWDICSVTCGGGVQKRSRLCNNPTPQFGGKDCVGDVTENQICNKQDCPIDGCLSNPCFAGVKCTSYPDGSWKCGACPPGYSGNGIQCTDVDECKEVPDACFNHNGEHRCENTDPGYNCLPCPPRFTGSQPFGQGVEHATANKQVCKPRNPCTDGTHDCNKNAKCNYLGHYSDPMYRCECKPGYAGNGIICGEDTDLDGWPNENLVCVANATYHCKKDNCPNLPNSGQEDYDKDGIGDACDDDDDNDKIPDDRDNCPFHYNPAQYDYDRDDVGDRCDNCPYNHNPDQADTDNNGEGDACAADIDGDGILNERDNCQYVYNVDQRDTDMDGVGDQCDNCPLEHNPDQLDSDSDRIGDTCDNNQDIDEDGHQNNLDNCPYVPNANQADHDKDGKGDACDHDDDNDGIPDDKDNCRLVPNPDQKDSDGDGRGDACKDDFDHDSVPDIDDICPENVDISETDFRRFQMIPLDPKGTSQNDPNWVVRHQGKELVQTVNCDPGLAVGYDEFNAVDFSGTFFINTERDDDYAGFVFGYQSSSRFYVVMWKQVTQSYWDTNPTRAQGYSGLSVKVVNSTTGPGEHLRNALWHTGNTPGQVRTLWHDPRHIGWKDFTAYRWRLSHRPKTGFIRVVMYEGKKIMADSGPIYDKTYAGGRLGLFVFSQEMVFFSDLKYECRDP

Work on `NC(=O)c1ccc(C[C@@H]2NC(=O)C3(CCCC3)NC2=O)cc1` [Compound 13, (S)-4-((7,10-dioxo-6,9-diazaspiro[4.5]decan-8-yl)methyl)benzamide] yielded an inhibition at 0.01 µM (TGF-β mediated by TSP-1) of 8%, an inhibition at 0.1 µM (TGF-β mediated by TSP-1) of 24.6% and an inhibition at 1 µM (TGF-β mediated by TSP-1) of 19.6%.

`NCCCC[C@@H]1NC(=O)C2(CCCC2)NC1=O` [Compound 7] showed an inhibition at 0.01 µM (TGF-β mediated by TSP-1) of 72%, an inhibition at 0.1 µM (TGF-β mediated by TSP-1) of 89% and an inhibition at 1 µM (TGF-β mediated by TSP-1) of 92%. The IC50 (TGF-β mediated by TSP-1) was 0.85 nM.

With LSKL the “block of CAG-heparanase MM cell generated TGF-β activity” value (CAG-heparanase MM cells) was 80%, the MM tumor burden (CAG human myeloma cells) was “Reduces MM Tumor Burden” and the “phospho-Smad 2 in the bone marrow” value (phospho-Smad 2) was “Reduces Phospho-Smad 2”. For the same compound, the “osteoblast differentiation by MSCs” value (MSCs) was “Increases Osteoblast Differentiation”, the “TGF-β activity (phospho-Smad 2) in CAG MM cells” value (CAG MM cells) was “Reduces TGF-B Activity” and the plasma stability half-life [1] was 2.1 min. The “necropsy findings after chronic treatment” value [2] was “no inflammation, no tumors in all major organs, and no impairment of wound healing”.

Compound `CC1(C)NC(=O)[C@H](Cc2ccc(C(N)=O)cc2)NC1=O` [Compound 11, (S)-4-((5,5-dimethyl-3,6-dioxopiperazin-2-yl)methyl)benzamide] has an inhibition at 0.01 µM (TGF-β mediated by TSP-1) of 25%, an inhibition at 0.1 µM (TGF-β mediated by TSP-1) of 39% and an inhibition at 1 µM (TGF-β mediated by TSP-1) of 40%.

`NC(=O)c1ccc(C[C@@H]2NC(=O)CNC2=O)cc1` [Compound 12, (S)-4-((3,6-dioxopiperazin-2-yl)methyl)benzamide] showed an inhibition at 0.01 µM (TGF-β mediated by TSP-1) of 40%, an inhibition at 0.1 µM (TGF-β mediated by TSP-1) of 65.6% and an inhibition at 1 µM (TGF-β mediated by TSP-1) of 68%.

In the case of `CC1(C)NC(=O)[C@H](Cc2ccc(N)cc2)NC1=O` [Compound 4, (S)-6-(4-aminobenzyl)-3,3-dimethylpiperazine-2,5-dione], the inhibition at 0.01 µM (TGF-β mediated by TSP-1) is reported as 80%, the inhibition at 0.1 µM (TGF-β mediated by TSP-1) is reported as 78% and the inhibition at 1 µM (TGF-β mediated by TSP-1) is reported as 83%. It also gave an IC50 (TGF-β mediated by TSP-1) of 1 nM.

`NCCCC[C@@H]1NC(=O)CNC1=O` [Compound 1, (S)-3-(4-aminobutyl)piperazine-2,5-dione] gave an inhibition at 10 pM [3] of -67%, an inhibition at 50 pM [3] of -4% and an inhibition at 0.0001 µM [3] of 37%. The inhibition at 0.01 µM (TGF-β mediated by TSP-1) was 38%, the inhibition at 0.1 µM (TGF-β mediated by TSP-1) was 59% and the inhibition at 1 µM (TGF-β mediated by TSP-1) was 74.5%.

For `CC1(C)NC(=O)[C@@H](CCCCN)NC1=O` [Compound 10, (R)-6-(4-aminobutyl)-3,3-dimethylpiperazine-2,5-dione], the “Inhibition of TGF-β mediated by TSP-1 cell-based assay (result in words)” value (TGF-β mediated by TSP-1) was “Inactive”.

`Nc1ccc(C[C@@H]2NC(=O)C3(CCC3)NC2=O)cc1` [Compound 8, (S)-7-(4-aminobenzyl)-5,8-diazaspiro[3.5]nonane-6,9-dione] gave an inhibition at 0.01 µM (TGF-β mediated by TSP-1) of 62%, an inhibition at 0.1 µM (TGF-β mediated by TSP-1) of 89% and an inhibition at 1 µM (TGF-β mediated by TSP-1) of 92%. For the same compound, the IC50 (TGF-β mediated by TSP-1) was 4 nM.

With `Nc1ccc(C[C@@H]2NC(=O)C3(CCCC3)NC2=O)cc1` [Compound 9, (S)-8-(4-aminobenzyl)-6,9-diazaspiro[4.5]decane-7,10-dione] the inhibition at 0.01 µM (TGF-β mediated by TSP-1) was 40%, the inhibition at 0.1 µM (TGF-β mediated by TSP-1) was 92% and the inhibition at 1 µM (TGF-β mediated by TSP-1) was > 100%. The IC50 (TGF-β mediated by TSP-1) was 11 nM.

Work on `CC1(C)NC(=O)[C@H](CCCCN)NC1=O` [Compound 2, (S)-6-(4-aminobutyl)-3,3-dimethylpiperazine-2,5-dione] yielded an inhibition at 10 pM [3] of 73%, an inhibition at 50 pM [3] of 91% and an inhibition at 0.0001 µM [3] of 89%. It also gave an inhibition at 0.01 µM (TGF-β mediated by TSP-1) of 38%, an inhibition at 0.1 µM (TGF-β mediated by TSP-1) of 71% and an inhibition at 1 µM (TGF-β mediated by TSP-1) of 76%.

With `Nc1ccc(C[C@@H]2NC(=O)C3(CCCCC3)NC2=O)cc1` [Compound 15, (S)-3-(4-aminobenzyl)-1,4-diazaspiro[5.5]undecane-2,5-dione] the inhibition at 0.01 µM (TGF-β mediated by TSP-1) was 49%, the inhibition at 0.1 µM (TGF-β mediated by TSP-1) was 85% and the inhibition at 1 µM (TGF-β mediated by TSP-1) was 94%.

Compound `CC1(C)NC(=O)[C@H](Cc2cccc(CN)c2)NC1=O` [Compound 6] has an inhibition at 0.01 µM (TGF-β mediated by TSP-1) of 75%, an inhibition at 0.1 µM (TGF-β mediated by TSP-1) of 96% and an inhibition at 1 µM (TGF-β mediated by TSP-1) of 97%. The IC50 (TGF-β mediated by TSP-1) was 1 nM.

For `NCCC[C@@H]1NC(=O)C2(CCCC2)NC1=O` [Compound 14, (S)-8-(3-aminopropyl)-6,9-diazaspiro[4.5]decane-7,10-dione], the inhibition at 0.01 µM (TGF-β mediated by TSP-1) was 54%, the inhibition at 0.1 µM (TGF-β mediated by TSP-1) was 85% and the inhibition at 1 µM (TGF-β mediated by TSP-1) was 90%.

`Nc1ccc(C[C@@H]2NC(=O)CNC2=O)cc1` [Compound 3, (S)-3-(4-aminobenzyl)piperazine-2,5-dione] gave an inhibition at 10 pM [3] of 66%, an inhibition at 50 pM [3] of 68% and an inhibition at 0.0001 µM [3] of 90%. It also gave an inhibition at 0.01 µM (TGF-β mediated by TSP-1) of 13%, an inhibition at 0.1 µM (TGF-β mediated by TSP-1) of 32% and an inhibition at 1 µM (TGF-β mediated by TSP-1) of 75%.
